# Results as given in patent US12527798B2, “Preservation of immune response during chemotherapy regimens” (Pharmacosmos Holding A/S, priority 2016, dated 2026).
# Read-outs that look alike come from different tables or passages of the source.
# How the values were obtained:
# MC38 tumor cells [1] = format: in vivo; conditions: interim data, dosing schedule not given
# Protocol: (§1) Anti-tumor activity of Compound I in combination with mouse anti-PD-L1 (clone 10F.9G2), and 5-flurouracil (5-FU) was evaluated in the MC38 syngeneic murine colon carcinoma model. For all xenograft studies, nine-week old female C57BL/6 mice (C57BL/6NCrl) were implanted with MC38 tumor cells and treatment was initiated when mean tumor volume was approximately 100 mm^3.
# Briefly, Compound I (100 mg/kg) and 5-FU (75 mg/kg) were administered intraperitoneally (IP) once weekly for three doses. […] In the Induction (I) dosing schedule, mouse anti-PD-L1 (100 μg/animal, IP) was given twice weekly for two weeks starting on Day 1 and ending on Day 15. In the Maintenance (M) dosing schedule, mouse anti-PD-L1 (100 μg/animal, IP) was given twice weekly starting on Day 15 and continuing through the end of study. In the Induction+Maintenance (IM) dosing schedule, mouse anti-PD-L1 (100 μg/animal, IP) was given twice weekly starting on Day 1 and continuing through the end of study.
# (§2) Single, two, and three drug combinations were tested and Compound I was administered minutes prior to chemotherapy treatment. Complete response (CR) and partial response (PR) were calculated using standard Charles River Laboratories (CRL; RTP, NC) criteria. Body weight (BW) and health were monitored, and tumor volume was measured twice weekly. The individual tumor volume endpoint was 1000 mm^3 or Day 100, whichever came first. The arms of the study included the following: • 1) vehicle • 2) 5-FU+anti-PD-L1 (clone 10F.9G2), IM dosing schedule • 3) Compound I+5-FU+anti-PD-L1 (clone 10F.9G2), IM dosing schedule • 4) 5-FU+anti-mouse PD-L1 (clone 10F.9G2), M dosing schedule • 5) Compound I+5-FU+anti-mouse PD-L1 (clone 10F.9G2), M dosing schedule • 6) 5-FU+anti-mouse PD-L1 (clone 10F.9G2), I dosing schedule • 7) Compound I+5-FU+anti-mouse PD-L1 (clone 10F.9G2), I dosing schedule
# splenocytes = assay: Ex vivo splenocyte stimulation, IL-2 and IFNγ ELISA after 5-FU treatment (Example 6); format: in vivo, C57BL/6 mice; conditions: Compound I 100 mg/kg added to 5-FU 50 mg/kg, 3 daily IP doses, splenocytes stimulated with anti-CD3/CD28 72 h
# Protocol: C57BL/6 mice were treated with 3 daily IP doses of 50 mg/kg 5-FU±100 mg/kg Compound I. Two and seven days after the final treatment, mice were euthanized and spleens were harvested. Splenocytes were stimulated ex vivo with anti-CD3/CD28 antibodies for 72 hours and interferon gamma (IFNγ) or interleukin-2 (IL-2) levels were measured via ELISA (R&D systems). After the ex-vivo splenocyte stimulation in C57BL/6 mice, Compound I enhanced IL-2 production (FIG. 12) and preserved IFNγ production (FIG. 13) after 5-FU treatment. A potential mechanism by which Compound I enhances anti-tumor activity includes the preservation of T lymphocyte function from chemotherapy.
# MC38 tumors [2] = assay: Whole-tumor interferon-gamma (Ifng) expression, PanCancer Immune Profiling Panel (Example 13); format: in vivo, C57BL/6 mice; conditions: Compound I added to oxaliplatin or oxaliplatin/anti-PD-L1 combinations, eight days; FIGS. 28-31
# Protocol: Twenty-four hours after the final dose, mice were euthanized and tumors were harvested for analysis. Gene expression analysis was performed on whole tumors using the PanCancer Immune Profiling Panel. The normalized and Log 2 transformed expression level of interferon-gamma (Ifng) is plotted for each pair of treatment groups with or without Compound I. T=Compound I, O=oxaliplatin, P=anti-PD-L1.
# CD8+ T cells = assay: CFSE proliferation of CD8+ T cells in the presence of Tregs treated with Compound I (Example 9); format: cell-based, C57BL/6 mice; conditions: splenocytes stimulated with anti-CD3/CD28 72 hours; FIG. 20
# Protocol: (§3) CD4+CD25+ Tregs were purified from spleens of C57BL/6 mice using a two-step magnetic bead separation process-depletion of all non-CD4+ cells followed by positive selection of CD25+ cells. Purified Tregs were cultured ex-vivo with […] antibodies and IL-2 for 48 hours with either 0, 250, or 1000 nM trilaciclib. […] The percentage of phospho-Rb+ Tregs was defined as phospho-Rb+ cells in the CD4+Foxp3+ population. […] CFSE-labeled splenocytes were stimulated ex-vivo with anti-CD3/CD28 antibodies for 72 hours in the presence or absence of Tregs treated with Compound I. Cells were stained with anti-CD4 and CD8 antibodies, and T cell proliferation was assessed by the dilution of the mean fluorescence intensity of CFSE in CD4-CD8+ T cells by flow cytometric analysis. Percent proliferation was calculated as (mean CFSE intensity of CD8+ T cells stimulated in the absence of Tregs)/(mean CFSE intensity of CD8+ T cells stimulated in the presence of Tregs)×100, the results of which are shown in FIG. 19 and FIG. 20.
# MC38 tumor cells [3] = format: in vivo; conditions: dosing schedule not given, anti-PD-1 combination study
# Protocol: For all xenograft studies, nine-week old female C57BL/6 mice (C57BL/6NCrl) were implanted with MC38 tumor cells and treatment was initiated when mean tumor volume was approximately 100 mm^3. Compound I was administered in combination with oxaliplatin and […] according to the Induction and Maintenance (IM) dosing schedule, which is shown in FIG. 3.
# Briefly, Compound I (100 mg/kg) and oxaliplatin (10 mg/kg) were administered intraperitoneally (IP) once weekly for three doses and mouse […] (5 mg/kg, IP) was given twice weekly starting on Day 1 and continuing through the end of study.
# Single, two, and three drug combinations were tested and Compound I was administered 30 minutes prior to chemotherapy treatment. Complete response (CR) and partial response (PR) were calculated using standard Charles River Laboratories (CRL; RTP, NC) criteria. Body weight (BW) and health were monitored, and tumor volume was measured twice weekly. The individual tumor volume endpoint was 1000 mm^3 or Day 100, whichever came first.
# MC38 tumor = MC38 tumor volume under continuous daily dosing of Compound I with or without anti-PD-L1 (Example 16); format: in vivo, mice; conditions: continuous Compound I (daily x 28 days, IP, 100 mg/kg) added to anti-PD-L1; FIG. 38
# Protocol: MC38 tumor-bearing mice were treated with Compound I (daily×28 days, IP, 100 mg/kg) with or without anti-PD-L1 (biweekly×2 weeks, IP, 100 ug/animal) and tumor volume was evaluated.
# MC38 tumor cells [4] = format: in vivo; conditions: dosing schedule not given, anti-PD-L1 combination study
# Protocol: as §1, with “PD-L1” for “mouse anti-PD-L1”, “10F.9G2)” for “10F.9G2),”, “oxaliplatin” for “5-flurouracil (5-FU)”
# Briefly, Compound I (100 mg/kg) and oxaliplatin (10 mg/kg) were administered intraperitoneally (IP) once weekly for three doses and the checkpoint inhibitor administration was varied as depending on the dosing schedule. In the Induction (I) dosing schedule, mouse anti-PD-L1 (100 μg/animal, IP) was given twice weekly for two weeks starting on Day 1 and ending on Day 15. In the Maintenance (M) dosing schedule, mouse anti-PD-L1 (100 μg/animal, IP) was given twice weekly starting on Day 15 and continuing through the end of study. In the Induction+Maintenance (IM) dosing schedule, mouse anti-PD-L1 (100 μg/animal, IP) was given twice weekly starting on Day 1 and continuing through the end of study.
# as §2, with “administered 30” for “administered”, “2) Compound I+anti-PD-L1” for “2) 5-FU+anti-PD-L1”, “Compound I+Oxaliplatin+anti-PD-L1” for “Compound I+5-FU+anti-PD-L1”, “4) Oxaliplatin+anti-mouse” for “4) 5-FU+anti-mouse”, “Compound I+oxaliplatin+anti-mouse” for “Compound I+5-FU+anti-mouse”, “6) oxaliplatin+anti-mouse” for “6) 5-FU+anti-mouse”
# CD4+ and CD8+ T cells = assay: T cell activation (CD69, IL-2) in splenocytes of MC38 tumor-bearing mice (Example 8); format: in vivo; conditions: Compound I added to oxaliplatin and anti-PD-L1, four days; spleen; FIGS. 16, 17
# Source text: Twenty-four hours after the final dose, the mice were euthanized and spleens were harvested and processed to single-cell suspensions for T-cell analysis. Splenocytes were stained with anti-CD4, CD8, and CD69 antibodies for flow cytometric analysis. The percentage of activated CD4+ T cells was defined as the proportion of CD69+ cells within the CD8−CD4+ T cell fraction, while the percentage of activated CD8+ T cells was defined as the proportion of CD69+ cells within the CD8+CD4− T cell fraction, the results of which are shown in FIGS. 16 and 17. Additionally, splenocytes were also stimulated ex-vivo with anti-CD3/CD28 antibodies for 72 hours and were stained with anti-CD4, CD8, and IL-2 antibodies for flow cytometric analysis. The percentage of IL-2+ cells was defined as the proportion of IL-2+ cells within the […] T cell fraction, the results of which are shown in FIG. 18.
# intra-tumor immune cells = assay: EdU incorporation in intra-tumor immune cell populations of MC38 tumor-bearing mice (Example 10); format: in vivo, C57BL/6 mice; conditions: one dose 100 mg/kg IP; EdU 6 to 48 hours after treatment; FIGS. 21, 22
# Protocol: MC38 tumor-bearing C57BL/6 mice were treated with one dose of Compound I (100 mg/kg, IP), followed by in vivo EdU (5-ethynyl-2′-deoxyuridine, 200 μg/mouse, IP) incorporation 6 to 48 hours after treatment with Compound I. Eighteen hours after EdU dosing, mice were euthanized and tumors were harvested for analysis. Tumors were processed to single-cell suspensions, followed by depletion of dead cells and enrichment of CD45+ immune cells prior to antibody labeling for various lymphoid and myeloid immune cell populations defined as follows: CD8+ T cells (CD4−CD8+), CD4+ T cells (CD4+CD8−Foxp3−), Tregs (CD4+CD8−Foxp3+), NK (CD3−NK1.1+), monocytic myeloid derived suppressor cells (mMDSCs, CD11b+Ly6C+Ly6G−), granulocytic myeloid derived suppressor cells (gMDSCs, CD11b+Ly6C+Ly6G+), and macrophages (CD11b+Ly6C−Ly6G−). After cell surface staining, cell samples were fixed and EdU incorporation was detected by click chemistry followed by flow cytometric analysis. Inhibition of proliferation is represented as the (% EdU+ in Compound I treated)/(% EdU+ in vehicle treated)×100 for each cell population at each time point.
# CDK4/6-Rb pathway = assay: Phospho-Rb in purified Tregs cultured ex vivo, flow cytometry (Example 9); format: cell-based, C57BL/6 mice; conditions: 0, 250 or 1000 nM, 48 hours; FIG. 19
# Protocol: as §3
# MC38 tumors [5] = assay: Whole-tumor gene expression, PanCancer Immune Profiling Panel, two weekly doses (Examples 12 and 14); format: in vivo, C57BL/6 mice; conditions: two weekly doses 100 mg/kg IP, p <0.05, absolute fold change >1.3
# Protocol: MC38 tumor-bearing C57BL/6 mice were treated with two weekly doses of Compound I (100 mg/kg, IP). One day after the last dose, mice were euthanized and tumors were harvested for analysis. Gene expression analysis was performed on whole tumors using the PanCancer Immune Profiling Panel. Normalized and Log 2 transformed expression values were used for identification of differentially expressed genes, defined using a p-value cutoff of <0.05 and absolute fold change >1.3.
# CT26 tumor = CT26 tumor growth in mice (Example 7); format: in vivo; conditions: Compound I added to an anti-PD-L1/oxaliplatin regimen
# Protocol: CT26 bearing mice are treated with Compound I (IP, 100 mg/kg, weekly×3), anti-PD-L1 (IP, 5 mg/animal, biweekly to end), and/or oxaliplatin (IP, 10 mg/kg, weekly×3) and tumors were evaluated.
Compound,Complete Response % (MC38 tumor cells [3]),Objective Response Rate % (MC38 tumor cells [3]),Overall Survival (OS) (MC38 tumor cells [3]),Partial Response % (MC38 tumor cells [3]),Complete Response % (MC38 tumor cells [4]),Objective Response Rate % (MC38 tumor cells [4]),Overall Survival (OS) (MC38 tumor cells [4]),Partial Response % (MC38 tumor cells [4]),further results
"O=c1[nH]cc(F)c(=O)[nH]1 [Compound 5-FU, 5-Fluorouracil]",–,–,–,–,–,–,–,–,Overall Survival @ D29% (MC38 tumor cells [1]; Day 29): 30%; Complete Response % (MC38 tumor cells [1]; MC38): 0%; Objective Response Rate % (MC38 tumor cells [1]; MC38): 0%; Partial Response % (MC38 tumor cells [1]; MC38): 0%; Progressive Disease % (MC38 tumor cells [1]; percent of tumors that have doubled in size by Day 29): 100%
"CN1CCN(c2ccc(Nc3ncc4cc5n(c4n3)C3(CCCCC3)CNC5=O)nc2)CC1 [Compound I, trilaciclib]",10%,20%,22,10%,0%,0%,19,0%,"IL-2 production (splenocytes; FIG. 12): enhanced; IFNγ production (splenocytes; FIG. 13): preserved; interferon-gamma gene expression in tumor (MC38 tumors [2]): Upregulation; proliferation of CD8+ T cells in the presence of Tregs treated with Compound I (CD8+ T cells): dose-dependent increase in proliferation; anti-tumor effect (tumor volume) (MC38 tumor): does not enhance the anti-tumor effect and, in fact, causes some attenuation; T cell activation (CD69+ CD4+ and CD8+ T cells) (CD4+ and CD8+ T cells): Enhanced T Cell Activation; proliferation of intra-tumor lymphoid and myeloid immune cell populations (EdU) (intra-tumor immune cells): transient and reversible inhibition of cell proliferation; phospho-Rb level in Tregs (CDK4/6-Rb pathway): dose-dependent down-regulation; expression of genes Il2, Il18, and Lta (positive regulation of interferon-gamma production) (MC38 tumors [5]; FIGS. 25-27): Up-regulated; expression of genes Cdkn1a, Cxcl1, Il6, Il10, Il19, Ptgs2 (reactive oxygen species metabolism) (MC38 tumors [5]; FIGS. 32-37): Down-regulated; anti-tumor efficacy (CT26 tumor): consistently enhanced anti-tumor efficacy"
"O=C1[O][Pt]2([NH][C@@H]3CCCC[C@H]3[NH]2)[O]C1=O [Oxaliplatin, oxaliplatin, reference compound]",10%,10%,31,0%,22%,22%,36,0%,–
